What was measured:
[1] = tested on: SCPJU; experiment: Example V: field trial, in-water application to transplanted rice, Niigata, Japan; type: in vivo, Scirpus juncoides; settings: 31 DAA, submerged weeds
Method: Post and pre-emergence field trials were conducted in Niigata, Japan. Trial sites were located in commercially grown fields of transplanted rice (Oryza sativa, variety: Koshihikari) using standard herbicide small plot research methodology. The trial plot size was 2 meters (m)×2 m with 3 replications. The nursery plants were grown in the greenhouse using practical methods and transplanted into the field at the 2.5-leaf stage on May 7, 2012. The row and in-row spaces were 30 cm and 17 cm, respectively. The crop was grown using normal cultural practices for fertilization, water management and maintenance to ensure good growth of the crop and the weeds.
Treatments consisted of the benzyl ester of 4-amino-3-chloro-5-fluoro-6-(4-chloro-2-fluoro-3-methoxyphenyl)pyridine-2-carboxylic acid (Compound A) formulated as an SC (suspension concentrate) and various herbicidal components alone and in combination. Compound A benzyl ester was applied on an active ingredient basis. […]
Compound A benzyl ester SC was once diluted in 100 mL water in the 200 mL bottle/plot to achieve the desired rates and applied by water injection. […] Visual weed control was scored on a scale of 0 to 100 percent where 0 corresponds to no injury and 100 corresponds to complete kill. […]

[2] = tested on: SCPJU; experiment: Example II: in-water applied weed control, transplanted paddy rice, greenhouse; type: in vivo, Schoenoplectus juncoides (Roxb.) Palla (Japanese bulrush)
Method: Weed seeds or nutlets of the desired test plant species were planted in puddled soil (mud) prepared by mixing a shredded, non-sterilized mineral soil (50.5 percent silt, 25.5 percent clay, and 24 percent sand, with a pH of about 7.6 and an organic matter content of about 2.9 percent) and water at a 1:1 volumetric ratio. The prepared mud was dispensed in 365 mL aliquots into 16-ounce (oz.) non-perforated plastic pots with a surface area of 86.59 square centimeters (cm^2) leaving a headspace of 3 centimeters (cm) in each pot. Mud was allowed to dry overnight prior to planting or transplanting. Rice seeds were planted in Sun Gro MetroMix® 306 planting mixture, which typically has a pH of 6.0 to 6.8 and an organic matter content of about 30 percent, in plastic plug trays. Seedlings at the second or third leaf stage of growth were transplanted into 840 mL of mud contained in 32-oz. non-perforated plastic pots with a surface area of 86.59 cm^2 4 days prior to herbicide application. The paddy was created by filling the headspace of the pots with 2.5 to 3 cm of water. When required to ensure good germination and healthy plants, a fungicide treatment and/or other chemical or physical treatment was applied. The plants were grown for 4-22 days in a greenhouse with an approximate 14 hr photoperiod which was maintained at about 29′C during the day and 26° C. during the night. Nutrients were added as Osmocote® (19:6:12, N:P:K+ minor nutrients) at 2 g per 16-oz. pot and 4 g per 32-oz. pot. […]
Treatment requirements for each compound or herbicidal component were calculated based upon the rates being tested, the concentration of active ingredient or acid equivalent in the formulation, an application volume of 2 mL per component per pot, and an application area of 86.59 cm^2 per pot.
For formulated compounds, a measured amount was placed in an individual 100 or 200 mL glass vial and was dissolved in a volume of 1.25% (v/v) Agri-Dex® crop oil concentrate to obtain application solutions. […]

## COc1c(Cl)ccc(-c2nc(C(=O)OCc3ccccc3)c(Cl)c(N)c2F)c1F [Compound A Benzyl Ester, benzyl ester of 4-amino-3-chloro-5-fluoro-6-(4-chloro-2-fluoro-3-methoxy-phenyl)pyridine-2-carboxylic acid]
[1]; 100 gai/ha
  Visual Weed Control SCPJU Obs: 87.7%

## CCCOCCN(C(=O)CCl)c1c(CC)cccc1CC [Pretilachlor, 2-chloro-N-(2,6-diethylphenyl)-N-(2-propoxyethyl)acetamide]
[2]; 75 gai/ha
  Visual Weed Control (%) - 20 DAA SCPJU Obs: 50%
[2]; 150 gai/ha
  Visual Weed Control (%) - 20 DAA SCPJU Obs: 20%

## CCS(=O)(=O)Oc1ccc2c(c1)C(C)(C)CO2 [Benfuresate, 2,3-dihydro-3,3-dimethyl-5-benzofuranyl ethanesulfonate]
[1]; 600 gai/ha
  Visual Weed Control SCPJU Obs: 64.3%

## COc1c(Cl)ccc(-c2nc(C(=O)O)c(Cl)c(N)c2F)c1F [Compound A Acid, 4-amino-3-chloro-6-(4-chloro-2-fluoro-3-methoxyphenyl)-5-fluoropyridine-2-carboxylic acid]
[2]; 8.75 gae/ha
  Visual Weed Control (%) - 20 DAA SCPJU Obs: 40%

— patent US20130310256A1, “HERBICIDAL COMPOSITIONS COMPRISING 4-AMINO-3-CHLORO-5-FLUORO-6-(4-CHLORO-2-FLUORO-3-METHOXYPHENYL) PYRIDINE-2-CARBOXYLIC ACID OR A DERIVATIVE THEREOF AND VLCFA AND LIPID SYNTHESIS INHIBITING HERBICIDES” (DOW AGROSCIENCES LLC, priority 2008, published 2013)
